This is an account of results in US5563169A, “Tricyclic heterocyclic compound” (Sankyo Company, Limited, priority 1991, dated 1996).

The assay relates to acyl-CoA: cholesterol acyltransferase (ACAT). Nature of the assay: ACAT inhibiting effect in vitro (rat liver microsome, method of Ross et al.). The assay is classed as biochemical. The conditions noted are these: rat liver microsome (Sprague-Dawley) enzyme fraction, 100 μM [14C]oleoyl-CoA, 37° C., 4 minutes; stated in words only. The procedure:
ACAT inhibiting activities were determined according to the improved test method in vitro reported by Ross et al. [A. C. Ross etal., J. Biol. Chem., 259, 815-819(1984)].
According to the procedure described in A. C. Ross et al., J. Biol. Chem., 257, 2453-2459(1982), rat liver microsome was prepared from a rat of Sprague-Dawley strain fasted overnight to make an enzyme fraction. To a 0.15M potassium phosphate buffer solution (pH 7.4) containing 100 μM of [14C]oleoyl-CoA, 2 mM of dithiothreitol and 80 μM of bovine serum albumin were added 60-100 μg of the microsome fraction, and a 5 μl solution of a test compound in dimethylsulfoxide (2.5% v/v) was added to the above phosphate buffer solution to make 200 μl. The mixture was warmed at 37° C. for 4 minutes and then the enzyme reaction was stopped by adding 1 ml of ethanol under stirring. To the reaction mixture were added 2 ml of hexane. After stirring, 1 ml of a hexane solution was taken out and the solvent was evaporated in a stream of nitrogen. Cholesteryl oleate resulted from the enzyme reaction was separated by thin layer chromatography through silica gel using a 85:15:1 mixture of hexane, diethyl ether and acetic acid as a developing solvent. An ACAT activity was determined by measuring radioactivity and a inhibiting rate (%) was calculated by comparing a control activity with that of the test compound at given concentrations.
(Microsomes from liver hold many membrane-bound enzymes, among them those of drug oxidation.)

Consider `CC(C)c1cccc(C(C)C)c1NC(=O)CC1c2ccccc2Oc2ccccc21` [Example 1, N-[2,6-Bis (1-methylethyl)phenyl]-2-(9H-xanthen-9-yl)acetamide], for which the ACAT inhibiting activity result is given as “excellent inhibiting activity”.

For `CCc1cccc(CC)c1NC(=O)CC1c2ccccc2Oc2ccccc21` [Example 2, N-(2,6-Diethylphenyl)-2-(9H-xanthen-9-yl)acetamide], the ACAT inhibiting activity result is “excellent inhibiting activity”.

Take `CCc1cccc(CSC)c1NC(=O)CC1c2ccccc2Oc2ccccc21` [Example 3, N-(2-Ethyl-6-methylthiomethylphenyl)-2-(9H-xanthen-9-yl)acetamide]: the ACAT inhibiting activity result was “excellent inhibiting activity”.

Take `CCc1cccc(SC)c1NC(=O)CC1c2ccccc2Oc2ccccc21` [Example 9, N-(2-Ethyl-6-methylthiophenyl)-2-(9H-xanthen-9-yl)acetamide]: the ACAT inhibiting activity result is listed as “excellent inhibiting activity”.

As to `CCc1cccc(SC(C)C)c1NC(=O)CC1c2ccccc2Oc2ccccc21` [Example 10, N-(2-Ethyl-6-isopropylthiophenyl)-2-(9H-xanthen-9-yl)acetamide], the ACAT inhibiting activity entry was “excellent inhibiting activity”.

As to `CCc1cccc(Sc2ccccc2)c1NC(=O)CC1c2ccccc2Oc2ccccc21` [Example 11, N-(2- Ethyl-6-phenylthiophenyl)-2-(9H-xanthen-9-yl)acetamide], the ACAT inhibiting activity entry is given as “excellent inhibiting activity”.

For `CC(C)c1cccc(C(C)C)c1NC(=O)C(C)C1c2ccccc2Oc2ccccc21` (stereo not drawn) [Example 16, N-[2,6-Bis(1-methylethyl)phenyl]-2-(9H-xanthen-9-yl)propanamide], the ACAT inhibiting activity entry is “excellent inhibiting activity”.

In the case of `CC(C)c1cccc(C(C)C)c1NC(=O)CC1(C)c2ccccc2Oc2ccccc21` [Example 18-B, N-[2,6-bis(1-methylethyl)phenyl]-2-(9-methyl-9H-xanthen-9-yl)acetamide], the ACAT inhibiting activity result was “excellent inhibiting activity”.

Turning to `CCc1cccc(OC(C)C)c1NC(=O)CC1c2ccccc2Oc2ccccc21` [Example 25, N-(2-Ethyl-6-isopropoxyphenyl)-2-(9H-xanthen-9-yl)acetamide], the ACAT inhibiting activity result is listed as “excellent inhibiting activity”.
